Test results published in patent US20250179013A1, “INHIBITORS OF RNA HELICASE DHX9 AND USES THEREOF” (ACCENT THERAPEUTICS, INC., priority 2022, published 2025).
Read-outs that look alike come from different tables or passages of the source.

What was measured:
[1] = molecular target: T1, Human recombinant DHX9 protein (Homo sapiens, UniProt Q08211); experiment: DHX9 ATPase assay (ADP-Glo biochemical assay); details: for DHX9 Biochemical Max Inhibition: maximum inhibition in ATPase assay, 10 μM Aurintricarboxylic acid = 100%
T1 construct: purchased Viva
T1 sequence (Q08211 whole entry): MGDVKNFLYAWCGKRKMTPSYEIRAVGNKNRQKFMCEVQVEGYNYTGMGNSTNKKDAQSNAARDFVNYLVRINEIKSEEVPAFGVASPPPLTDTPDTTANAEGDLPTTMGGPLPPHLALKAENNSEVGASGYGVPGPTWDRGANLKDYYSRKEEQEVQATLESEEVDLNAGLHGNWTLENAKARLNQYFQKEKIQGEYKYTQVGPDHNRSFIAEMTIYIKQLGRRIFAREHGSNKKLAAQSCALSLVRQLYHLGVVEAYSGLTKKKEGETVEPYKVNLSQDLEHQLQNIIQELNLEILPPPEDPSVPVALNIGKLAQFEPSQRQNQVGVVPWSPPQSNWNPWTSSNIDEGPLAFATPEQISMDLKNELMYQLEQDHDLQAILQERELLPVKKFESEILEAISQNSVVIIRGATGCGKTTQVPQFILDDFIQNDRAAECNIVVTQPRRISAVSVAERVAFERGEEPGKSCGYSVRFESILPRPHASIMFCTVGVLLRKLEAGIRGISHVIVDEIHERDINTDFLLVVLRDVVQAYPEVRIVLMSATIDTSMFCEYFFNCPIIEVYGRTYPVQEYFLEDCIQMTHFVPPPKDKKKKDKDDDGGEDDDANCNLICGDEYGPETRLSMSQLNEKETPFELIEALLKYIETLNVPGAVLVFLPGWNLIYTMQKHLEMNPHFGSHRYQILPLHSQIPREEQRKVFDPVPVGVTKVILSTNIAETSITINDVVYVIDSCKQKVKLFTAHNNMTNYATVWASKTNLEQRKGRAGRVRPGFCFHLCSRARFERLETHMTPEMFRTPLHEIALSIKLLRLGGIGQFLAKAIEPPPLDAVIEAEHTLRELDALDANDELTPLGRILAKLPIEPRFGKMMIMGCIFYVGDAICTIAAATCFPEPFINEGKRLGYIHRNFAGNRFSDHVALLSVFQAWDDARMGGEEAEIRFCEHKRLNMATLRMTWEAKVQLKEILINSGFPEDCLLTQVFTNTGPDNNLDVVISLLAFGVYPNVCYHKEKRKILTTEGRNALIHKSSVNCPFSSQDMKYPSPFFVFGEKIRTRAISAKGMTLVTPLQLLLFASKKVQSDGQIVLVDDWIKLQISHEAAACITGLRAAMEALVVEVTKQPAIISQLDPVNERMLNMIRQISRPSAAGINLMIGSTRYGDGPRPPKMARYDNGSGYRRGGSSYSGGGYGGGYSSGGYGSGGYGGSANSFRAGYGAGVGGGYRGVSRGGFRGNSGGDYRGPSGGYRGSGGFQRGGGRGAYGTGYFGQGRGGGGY

[2] = tested on: DHX9 (circBRIP1 mRNA in HCT116 cells); experiment: DHX9 circBRIP1 Cellular Target Engagement SYBR Green Assay; type: cell-based; details: 72 hours
[3] = read-out: DHX9 Biochemical Inflection Point
[4] = Homo sapiens, HCT-116, circBRIP1 qPCR

SMILES | DHX9 Biochemical Max Inhibition [1] | IC50 [1, 3] | EC50 [2, 4] | IC50 [1] | IC50 ([1]; inflection point (IP) of four-parameter fit, reported instead of IC50, ATPase, dsRNA substrate, 1 h room temperature, read-out: DHX9 Biochemical Inflection Point) | EC50 ([2]; circBRIP1 qPCR)
COc1cccc(-c2csc(C(=O)Nc3cccc(NS(C)(=O)=O)c3)c2)c1 [Example 56] | 68.2% | 0.148 µM | 21.4 µM | – | – | –
CS(=O)(=O)Nc1cccc(NC(=O)c2cc(-c3ccccc3O)cs2)c1 [Example 57] | 70.7% | 0.0419 µM | 25.3 µM | – | – | –
CS(=O)(=O)Nc1cccc(NC(=O)c2cc(-c3cccc(N)c3)cs2)c1 [Example 58] | 69.2% | 0.0558 µM | 3.12 µM | – | – | –
Cc1ncccc1-c1csc(C(=O)Nc2cccc(NS(C)(=O)=O)c2)c1 [Example 60] | 69.2% | 0.0766 µM | 10.9 µM | – | – | –
CS(=O)(=O)Nc1cccc(NC(=O)c2cc(-c3cncnc3)cs2)c1 [Example 62] | 60.8% | 0.271 µM | > 30 µM | – | – | –
CCOc1ncc(-c2csc(C(=O)Nc3cccc(NS(C)(=O)=O)c3)c2)cn1 [Example 63] | 66.9% | 0.121 µM | 18.8 µM | – | – | –
Cc1ccc(-c2csc(C(=O)Nc3cccc(NS(C)(=O)=O)c3)c2)cn1 [Example 65] | 66.9% | 0.0418 µM | 8.56 µM | – | – | –
CS(=O)(=O)Nc1cccc(NC(=O)c2cc(-c3cccnn3)cs2)c1 [Example 66] | 71.3% | 0.0875 µM | > 30 µM | – | – | –
CS(=O)(=O)Nc1cccc(NC(=O)c2cc(-c3ncccc3O)cs2)c1 [Example 69] | 75.6% | 0.0163 µM | 4.79 µM | – | – | –
CS(=O)(=O)Nc1cccc(NC(=O)c2cc(-c3c(O)cccc3F)cs2)c1 [Example 70] | 71.2% | 0.0322 µM | 4.37 µM | – | – | –
CC(C)(C)OC(=O)Nc1cccc(-c2csc(C(=O)Nc3cccc(NS(C)(=O)=O)c3)c2)c1 [Example 72] | 64.4% | 0.494 µM | > 30 µM | – | – | –
CS(=O)(=O)Nc1cccc(NC(=O)c2cc(-c3cccc(O)c3)cs2)c1 [Example 73] | 63.7% | 0.109 µM | 6.15 µM | – | – | –
Cc1c(O)cccc1-c1csc(C(=O)Nc2cccc(NS(C)(=O)=O)c2)c1 [Example 74, 4-(3-hydroxy-2-methylphenyl)-N-(3-(methylsulfonamido)phenyl)thiophene-2-carboxamide] | 71.4% | 0.0806 µM | ≥ 30 µM | – | – | –
Cc1ccc(O)cc1-c1csc(C(=O)Nc2cccc(NS(C)(=O)=O)c2)c1 [Example 75] | 70.1% | 0.0821 µM | 8.28 µM | – | – | –
CS(=O)(=O)Nc1cccc(NC(=O)c2cc(-c3ccccc3OCc3ccccc3)cs2)c1 [Example 77] | 72.3% | 0.0894 µM | 2.04 µM | – | – | –
Cn1nc(C(=O)Nc2cccc(NS(C)(=O)=O)c2)cc1-c1ccc(O)cc1 [Example 79] | 71.2% | 0.467 µM | > 30 µM | – | – | –
CS(=O)(=O)Nc1cccc(NC(=O)c2cc(-c3ccccn3)n[nH]2)c1 [Example 81] | 68.3% | 1.07 µM | > 30 µM | – | – | –
Cc1cccnc1-c1csc(C(=O)Nc2cccc(NS(C)(=O)=O)c2)c1 [Example 83] | 73.1% | 0.0173 µM | 0.917 µM | – | – | –
CS(=O)(=O)Nc1cccc(NC(=O)c2cc(-c3ncccn3)cs2)c1 [Example 84] | 71.4% | 0.0125 µM | 4.84 µM | – | – | –
CS(=O)(=O)Nc1cccc(NC(=O)c2cc(-c3cccc(N)n3)cs2)c1 [Example 85] | 70.7% | 0.0195 µM | 1.39 µM | – | – | –

SMILES | DHX9 Biochemical Max Inhibition [1] | IC50 [1, 3] | EC50 [2, 4] | IC50 [1] | IC50 ([1]; inflection point (IP) of four-parameter fit, reported instead of IC50, ATPase, dsRNA substrate, 1 h room temperature, read-out: DHX9 Biochemical Inflection Point) | EC50 ([2]; circBRIP1 qPCR)
CS(=O)(=O)Nc1cccc(NC(=O)c2cc(-c3cc(N)ccn3)cs2)c1 [Example 86] | 71.1% | 0.0453 µM | 19.5 µM | – | – | –
CS(=O)(=O)Nc1cccc(NC(=O)c2cc(-c3cc(C(=O)O)ccn3)cs2)c1 [Example 87] | 77.2% | 0.0226 µM | ≥ 30 µM | – | – | –
CS(=O)(=O)Nc1cccc(NC(=O)c2cc(-c3ccccc3N)cs2)c1 [Example 88] | 68.2% | 0.0654 µM | 10.5 µM | – | – | –
CS(=O)(=O)Nc1cccc(NC(=O)c2cc(-c3ncccc3N)cs2)c1 [Example 89] | 76.4% | 0.0097 µM | 1.03 µM | – | – | –
CS(=O)(=O)Nc1cccc(NC(=O)c2nc(-c3ccccn3)c[nH]2)c1 [Example 90] | 61.2% | 19 µM | > 30 µM | – | – | –
CS(=O)(=O)Nc1cccc(NC(=O)c2cc(-c3ccc(N4CCNCC4)cn3)cs2)c1 [Example 91, N-(3-(methylsulfonamido)phenyl)-4-(5-(piperazin-1-yl)pyridin-2-yl)thiophene-2-carboxamide] | 74.6% | 0.0072 µM | 7.63 µM | – | – | –
CS(=O)(=O)Nc1cccc(NC(=O)c2cc(-c3cc(C(N)=O)ccn3)cs2)c1 [Example 92] | 75.5% | 0.0554 µM | > 30 µM | – | – | –
CC(=O)Nc1ccccc1-c1csc(C(=O)Nc2cccc(NS(C)(=O)=O)c2)c1 [Example 93, 4-(2-acetamidophenyl)-N-(3-(methylsulfonamido)phenyl)thiophene-2-carboxamide] | 74% | 0.0399 µM | 11.5 µM | – | – | –
CC(=O)Nc1cccnc1-c1csc(C(=O)Nc2cccc(NS(C)(=O)=O)c2)c1 [Example 94] | 71.2% | 0.125 µM | > 30 µM | – | – | –
CC(=O)N1CCN(c2ccc(-c3csc(C(=O)Nc4cccc(NS(C)(=O)=O)c4)c3)nc2)CC1 [Example 95] | 73.1% | 0.0076 µM | > 30 µM | – | – | –
CCS(=O)(=O)Nc1cccc(NC(=O)c2cc(-c3ccccc3)cs2)c1 [Example 96, N-(3-(ethylsulfonamido)phenyl)-4-phenylthiophene-2-carboxamide] | 59.6% | 0.0899 µM | 22.2 µM | – | – | –
CCS(=O)(=O)Nc1cccc(NC(=O)c2cc(-c3ccccn3)cs2)c1 [Example 97] | 70% | 0.0247 µM | 4.32 µM | – | – | –
CS(=O)(=O)Nc1cccc(NC(=O)c2cc(-c3ccccc3)c(C(F)(F)F)s2)c1 [Example 99, N-(3-(methylsulfonamido)phenyl)-4-phenyl-5-(trifluoromethyl)thiophene-2-carboxamide] | 35.8% | 0.716 µM | > 30 µM | – | – | –
CS(=O)(=O)Nc1cccc(NC(=O)c2cc(-c3ccccc3)c(C#N)s2)c1 [Example 100, 5-cyano-N-(3-(methylsulfonamido)phenyl)-4-phenylthiophene-2-carboxamide] | 65.8% | 0.333 µM | 28.5 µM | – | – | –
CS(=O)(=O)Nc1cccc(NC(=O)c2cc(C(=O)Nc3ccccc3)cs2)c1 [Example 102, N2-(3-(methylsulfonamido)phenyl)-N4-phenylthiophene-2,4-dicarboxamide] | 72.5% | – | 18.9 µM | 0.159 µM | – | –
CNC(=O)c1sc(C(=O)Nc2cccc(NS(C)(=O)=O)c2)cc1-c1ccccc1 [Example 152] | 69.7% | 0.123 µM | 16.6 µM | – | – | –
CS(=O)(=O)Nc1cccc(NC(=O)c2cc(-c3ccccc3)c(CO)s2)c1 [Example 153, 5-(hydroxymethyl)-N-(3-(methylsulfonamido)phenyl)-4-phenylthiophene-2-carboxamide] | 77.9% | 0.0432 µM | 5.91 µM | – | – | –
CS(=N)(=O)Nc1cccc(NC(=O)c2cc(-c3ccccc3)cs2)c1 (stereo not drawn) [Example 157, N-(3-(methylsulfonoamidimidamido)phenyl)-4-phenylthiophene-2-carboxamide] | 68.6% | – | – | – | 0.205 µM | > 30 µM
CS(=O)(=O)Nc1cc(C=O)cc(NC(=O)c2cc(-c3ccccc3)cs2)c1 [Example 159, N-(3-formyl-5-(methylsulfonamido)phenyl)-4-phenylthiophene-2-carboxamide] | 50.7% | 0.69 µM | > 10 µM | – | – | –
